Read-outs that look alike come from different tables or passages of the source.
Columns and labels:
[1] = In situ intestinal perfusion of rat duodenum (UPLC of perfusate); assay type: in vivo; conditions: for Cumulative Absorption Rate (%) 1 h (mean ± SD) / Cumulative Absorption Rate (%) 3 h (mean ± SD): rat duodenum, n = 6
Method: All animal experimental procedures were in compliance with the National Institutes of Health Guide for Care and Use of Laboratory Animals. The in situ intestinal perfusion experiment was performed by using male Sprague-Dawley rats (240 ± 20 g) which obtained from Beijing Vital River Laboratory Animal Technology Co., Ltd. (SCXK 2012-0001, Beijing, China). Animals were fasted overnight (12 h) with free access to water before being allocated to different experimental groups at random. After the abdominal cavity was opened, an intestinal loop (length, 10 cm) was made by cannulation with silicone tube (i.d., 3 mm) at the duodenum which was selected 1 cm away from pylorus. The intestinal contents were removed by infusion of normal saline solution. The 25 mL perfusion solution was precisely measured and stored in the measuring cylinder. At the start of the experiment, the perfusion solutions perfused through the intestinal segment at a flow rate of 5 mL/min for 10 min by using a peristaltic pump (Petro Gas Ausrüstungen, Berlin, Germany). On reaching a steady state, changed the flow rate to 2.5 mL/min, and the intestinal perfusion samples (150 µL × 3) were collected at 30 min intervals for the duration of 3 h (0, 0.5, 1, 1.5, 2, 2.5, 3 h) with a pipette and put into shell tube. After each collection, the volumes (V1) of the perfusion solutions were recorded precisely and 450 µL blank K-R solution was added into the perfusion solution to keep the volume of the perfusion solution constant. After 3 h, the intestinal perfusion solution in peristaltic pump and the duodenum was exhausted, the volume of which was recorded as V2. All the samples were assayed by UPLC after preparation. Finally, the curves of time and the residual quantities (lnx) of GP and GPA in intestinal solution during the absorption in the duodenum for 3 h were obtained (Figure 2).The residual quantities of GP and GPA in the perfusion solution were calculated using the following equation: Xn = CnVn + 0.45 [drawing 1] , Xn is the residual quantities of GP or GPA in intestinal solution, Ci and Cn is the concentration of the GP or GPA, Vn is the volume of the intestinal perfusion solution (Vn = V1 + V2). Cumulative absorption rates were compared for 1 h and 3 h between the single and compatibility groups. The equation was as follows: 1 h/3 h cumulative absorption rate [drawing 2] .
Samples were prepared using a protein precipitation method at a volume ratio of 1:1 (v/v). The perfusion sample (150 µL) was mixed with CH3OH (150 µL), and then vortexed for 1 min. After 10 min for the precipitation, pure water (160 µL) was added to 40 µL of the above mixture. Then the sample was vortexed for 1 min and centr ifuged at 14,000 rpm for 10 min. The supernatant was directly used for UPLC analysis.
After sample preparation, 3 µL of the supernatant was injected into the UPLC system, and separated on a Waters BEH C18 column (2.1 × 50 mm, 1.7 µm). The column temperature was set at 25 °C. The mobile phase was consisted of water with 0.2% acetic acid (A) and acetonitrile (B) at a flow rate of 0.35 mL/min. The mobile phase operated in the following gradient for GP: 0–3 min: 15%–50% B, 3–3.5 min: 50%–90% B, 3.5–4 min: 90%–50% B, 4–5 min: 50%–15% B; GPA: 0–1 min: 5%–10% B, 1–2 min: 10%–20% B, 2–3 min: 20%–50% B, 3–4 min: 50%–10% B, 4–5 min: 10%–5% B. The detection wavelength was 254 nm.

[2] = Effect of physical adsorption of the peristaltic pump; assay type: physicochemical; conditions: for Physical Adsorption RSD (%): original vs 3 h concentration, 37 °C; for Concentration (mg/L) 3 h: perfusion solution after 3 h in water bath at 37 °C, compared with original concentration
Method: The perfusion solutions with known drug concentrations were incubated for 3 h in a water bath at 37 °C. The concentrations of GP and GPA in the resulting solution were determined and compared with the original concentrations.

NO production = test system: NO production; set-up: method as in PMID 22181069; conditions: protection from renal injury; cited from earlier work
[3] = Stability in blank intestinal perfusion solution; assay type: physicochemical; conditions: 3 h, 50 mg/L; for Stability in blank intestinal perfusion solution: 37 °C; for Stability, RSD (%): Blank intestinal perfusion solution, 37 °C water bath, concentrations at 0, 0.25, 0.5, 1, 2 and 3 h compared
Method: A total of 50 mg/L GP and GPA perfusion solution (dissolved in blank intestinal perfusion solution) was incubated in a water bath at 37 °C for 3 h. The concentrations at 0, 0.25, 0.5, 1, 2 and 3 h were determined and compared.
The blank intestinal perfusion solution was prepared by a process consistent with the in situ intestinal perfusion experiment (as follows) except for the vacancy of GP or other components in the K-R solution.

[4] = Stability in K-R solution; assay type: physicochemical; conditions: 24 h, room temperature; for Stability, RSD (%): K-R solution, concentrations at 0-24 h compared
Method: GP and GPA were stable in K-R solution at room temperature for 24 h. The concentrations at 0, 1, 2, 3, 5, 6, 8, 10 and 24 h were determined and compared.
All the components were dissolved in the K-R solution to imitate the physiological conditions of the intestinal tract. K-R nutrient solution included: NaCl 7.8 g, KCl 0.35 g, CaCl2 0.37 g, NaHCO3 1.37 g, NaH2PO4 0.02 g, MgCl2 0.02 g, glucose 2.22 g. They were dissolved in distilled water to 1000 mL.

[5] = test system: β-D-glucosidase of a human intestinal anaerobe, Eubacterium sp.A-44; conditions: cited from earlier work
[6] = test system: β-D-glucosidase in rat liver homogenate; set-up: method as in PMID 7735197; conditions: cited from earlier work
[7] = cited from earlier work
[8] = Compatibility group (mixed with FPE)
[9] = Single group, 80 mg/L perfusion solution

## COC(=O)C1=CO[C@@H](O[C@@H]2O[C@H](CO)[C@@H](O)[C@H](O)[C@H]2O)[C@@H]2C(CO)=CC[C@H]12 [GP, Geniposide]
[1]; [8]
  Cumulative Absorption Rate (%) 1 h (mean ± SD): 0.139 ± 0.104%
  Cumulative Absorption Rate (%) 3 h (mean ± SD): 0.120 ± 0.063%
[1]; [9]
  Cumulative Absorption Rate (%) 1 h (mean ± SD): 0.059 ± 0.018 %
  Cumulative Absorption Rate (%) 3 h (mean ± SD): 0.081 ± 0.017 %
[2]
  Physical Adsorption RSD (%): 0.57%
  Concentration (mg/L) 3 h: 92.34 mg/L
NO production
  Effect on NO production: inhibited NO production
[3]
  Stability in blank intestinal perfusion solution: stable
  Stability, RSD (%): 3.27%
[4]
  Stability, RSD (%): 1.32%
  Stability in K-R solution: stable
[5]; human intestinal anaerobe Eubacterium sp.A-44
  Hydrolysis by β-D-glucosidase: can be hydrolyzed
[6]
  Hydrolysis by β-D-glucosidase: cannot be hydrolyzed
[7]; GP at 78 mg/L compared with other concentrations
  Absorption in the duodenum by concentration: best absorption
[7]
  Absorption in the duodenum versus other parts of the intestinal tract: better than other parts of the intestinal tract

## O=C(O)C1=CO[C@@H](O[C@@H]2O[C@H](CO)[C@@H](O)[C@H](O)[C@H]2O)[C@@H]2C(CO)=CC[C@H]12 [GPA, geniposidic acid]
[1]; [8]
  Cumulative Absorption Rate (%) 1 h (mean ± SD): 0.075 ± 0.015%
  Cumulative Absorption Rate (%) 3 h (mean ± SD): 0.105 ± 0.028%
[1]; GPA 216 mg/L in intestinal perfusion solution
  Intestinal absorption at 216 mg/L: poor absorption
[1]; [9]
  Cumulative Absorption Rate (%) 1 h (mean ± SD): 0.063 ± 0.040%
  Cumulative Absorption Rate (%) 3 h (mean ± SD): 0.136 ± 0.046%
[2]
  Physical Adsorption RSD (%): 1.32%
  Concentration (mg/L) 3 h: 114.68 mg/L
[3]
  Stability in blank intestinal perfusion solution: stable
  Stability, RSD (%): 0.45%
[4]
  Stability, RSD (%): 2.01%
  Stability in K-R solution: stable
[5]
  Hydrolysis by β-D-glucosidase: can hydolyse
